Measurements: US9981972B2, “N-hydroxy bicyclic hydantoin carbamates as tools for identification of serine hydrolase targets” (ABIDE THERAPEUTICS, INC., priority 2014, dated 2018)

Tests used:
[1] = test system: SH anti-targets in HeLa cells; assay: Gel-based competitive ABPP in situ, cultured HeLa cells, anti-targets; format: cell-based, human; conditions: 2 h, any compound concentration, ABHD6 not visible
Method: Assay Overview: The purpose of this assay was to determine IC50 values of powder samples of test compounds for enzyme of interest activity in situ using a gel-based competitive ABPP assay. In this assay, cultured cells were treated with test compound, harvested, and lysed. The isolated soluble proteome fraction was reacted with FP-Rh and analyzed by SDS-PAGE as described above.
Protocol Summary: To cultured HeLa cells (90% confluent) was added fresh DMEM (5 mL total volume; supplemented with 10% FCS) pre-mixed with DMSO or test compound. After 2 hours at 37° C., cells were harvested by scraping, washed twice with 10 mL DPBS, and homogenized by sonication in DPBS. The soluble fraction was isolated by centrifugation (100K×g, 45 minutes) and the protein concentration was adjusted to 1 mg/mL with DPBS. FP-Rh (1 μL of 50× stock in DMSO) was added to a final concentration of 2 μM in 50 μL total reaction volume. […] The percentage activity remaining was determined by measuring the integrated optical density of the enzymes of interest, and anti-target bands relative to a DMSO-only (no compound) control. […]
Compound 1 is active in situ against the LYPLA enzymes (see FIG. 3A) as assessed by gel-based competitive ABPP with FP-Rh following two hours of compound treatment of HeLa cells cultured in serum-supplemented medium.

ABHD6 = biological target: T1, ABHD6 (Homo sapiens, UniProt Q9BV23); assay: Selectivity analysis by ABPP-SILAC, HeLa cells in situ, FP-biotin; format: cell-based; conditions: 2 h in situ, read-out: inhibition of anti-target ABHD6 (ABPP-SILAC)
T1 construct: endogenous in cells; host or cells: HeLa
Excerpt: (§1) Competitive ABPP-SILAC (Adibekian, A., et al. J Am Chem Soc, 2012. 134(25): p. 10345-8) combined competitive ABPP (Leung, D., et al. Nat Biotechnol, 2003. 21(6): p. 687-91) with stable isotope labeling of cells (SILAC) (Ong, S. E., et al. Mol Cell Proteomics, 2002. 1(5): p. 376-86), and allowed for precise quantitation of enzyme inhibition by calculating the isotopic ratios of peptides from inhibitor-treated and control cells.
(§2) Assay Overview: The purpose of this assay was to determine the selectivity profile of powder samples of test compounds using stable isotope labeling with amino acids in cell culture (SILAC) ABPP. In this assay, cultured HeLa cells were metabolically labeled with light or heavy amino acids. Light and heavy cells were treated with inhibitor and DMSO, respectively, in situ. Cells were harvested, and proteome fractions were isolated and reacted with the serine-hydrolase-specific activity-based affinity probe fluorophosphonate-biotin (FP-biotin). Light and heavy samples were combined in a 1:1 (w/w) ratio. Biotinylated proteins were enriched, trypsinized, and analyzed by LC/LC-MS/MS (MudPIT) Inhibition of target and anti-target activity was quantified by comparing intensities of light and heavy peptide peaks. […] Proteins not targeted by inhibitors were expected to have a ratio close to 1.
(§3) Sample Preparation. HeLa cells were initially grown for at least eight passages in either light or heavy SILAC DMEM medium supplemented with 10% dialyzed FCS and 1× PenStrep Glutamine in a humidified incubator (37° C., 5% CO2). Light medium was supplemented with 100 μg/mL L-arginine (Sigma) and 100 μg/mL L-lysine (Sigma). Heavy medium was supplemented with 100 μg/mL [13C615N4]-L-Arginine (Isotek) and 100 μg/mL [13C615N2]-L-Lysine (Isotek). […]
(§4) LC-MS/MS analysis. Samples were analyzed by multidimensional liquid chromatography tandem mass spectrometry (MudPIT) using an Agilent 1200-series quaternary pump and Thermo Scientific LTQ Orbitrap Velos ion trap mass spectrometer. […]

MAGL = biological target: T2, MAGL (Homo sapiens, UniProt Q99685); assay: as above; format: cell-based; conditions: 2 h in situ
T2 construct: endogenous in cells; host or cells: HeLa
Excerpt: as §1, §2, §3, §4

human LYPLA1/2 = assay: as above; format: cell-based; conditions: 1 μM, 2 h in situ
Excerpt: as §1, §2, §3, §4

T1 sequence (Q9BV23 whole entry): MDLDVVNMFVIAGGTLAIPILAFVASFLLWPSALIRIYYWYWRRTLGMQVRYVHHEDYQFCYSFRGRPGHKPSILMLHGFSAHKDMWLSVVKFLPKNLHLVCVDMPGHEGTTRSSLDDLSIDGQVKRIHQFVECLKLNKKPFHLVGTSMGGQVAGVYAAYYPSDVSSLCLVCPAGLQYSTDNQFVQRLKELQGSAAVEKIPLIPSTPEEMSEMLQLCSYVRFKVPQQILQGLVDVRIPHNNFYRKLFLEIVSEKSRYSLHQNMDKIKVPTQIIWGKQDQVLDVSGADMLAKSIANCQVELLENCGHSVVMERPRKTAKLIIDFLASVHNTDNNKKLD
T2 sequence (Q99685 whole entry): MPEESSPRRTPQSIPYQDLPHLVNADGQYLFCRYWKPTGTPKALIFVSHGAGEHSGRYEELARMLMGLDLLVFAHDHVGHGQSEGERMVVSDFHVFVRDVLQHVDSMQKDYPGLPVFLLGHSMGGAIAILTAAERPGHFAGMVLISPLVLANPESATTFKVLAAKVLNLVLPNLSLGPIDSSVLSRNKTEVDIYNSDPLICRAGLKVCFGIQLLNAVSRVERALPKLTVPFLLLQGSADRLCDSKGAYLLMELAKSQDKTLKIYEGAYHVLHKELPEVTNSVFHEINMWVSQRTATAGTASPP

inhibition at 1 µM (ABHD6): > 90% | inhibition at 1 µM (MAGL): ~40%
Structure (SMILES): O=C(ON1C(=O)C2CN(C(=O)N3CCOCC3)CCN2C1=O)N1CCC(CCc2ccc(Cl)cc2)CC1 (stereo not shown) [Compound 1, 7-(morpholine-4-carbonyl)-1,3-dioxohexahydroimidazo[1,5-a]pyrazin-2(3H)-yl 4-(4-chloro-phenethyl)piperidine-1-carboxylate]
anti-target inhibition in situ [1]: No anti-target inhibition | inhibition of human LYPLA1/2 (ABPP-SILAC) (human LYPLA1/2): > 90%
